Laboratory results: US20220249441A1, “Homodimeric Tobramycin Adjuvant Repurposes Novobiocin as an Effective Antibacterial Agent Against Gram-Negative Bacteria” (priority 2019, published 2022)

Assays:
[1] = tested on: P. aeruginosa PAO1 and efflux deficient mutants, MDR/XDR isolates; test: microbe, parasite or virus in culture; format: cell-based, Pseudomonas aeruginosa
Procedure: Antimicrobial Susceptibility Assay. The in vitro antimicrobial activity of all compounds/antibiotics against a panel of bacteria was evaluated by microbroth dilution method in accordance with the Clinical and Laboratory Standards Institute (CLSI) guidelines (using ATCC strains as quality control strains) (54). […] The broth with or without bacterial cells was used as positive or negative control, respectively.

[2] = tested on: panel of Gram-positive and Gram-negative bacteria; test: Antimicrobial susceptibility assay against a panel of bacteria; format: cell-based; conditions: some isolates
Procedure: (§1) Antimicrobial Susceptibility Assay. The in vitro antimicrobial activity of all compounds/antibiotics against a panel of bacteria was evaluated by microbroth dilution method in accordance with the Clinical and Laboratory Standards Institute (CLSI) guidelines (using ATCC strains as quality control strains) (54). Overnight grown bacterial cultures were diluted in saline to achieve a 0.5 McFarland turbidity, followed by 1:50 dilution in Mueller-Hinton broth (MHB) for inoculation to a final concentration of approximately 5×10^5 CFU/mL. […] The lowest concentration that prevented the visible growth of bacteria was defined as the MIC for each antimicrobial agent. The broth with or without bacterial cells was used as positive or negative control, respectively.

P. aeruginosa = test: Checkerboard assay (antibiotic + adjuvant combination MIC); format: cell-based, Pseudomonas aeruginosa; conditions: compound at 8 μM
Procedure: as §1
Checkerboard Assay. Combination studies with different antibiotics were performed in 96-well plates as previously described (19). Briefly, the antibiotic of interest was serially diluted in MHB along the abscissa while the adjuvant (tobramycin homodimer) was serially diluted in MHB along the ordinate. This creates a 10×7 matrices wherein each well consists of a combination of different antibiotic and adjuvant concentrations. Overnight grown bacterial cultures were diluted in saline to achieve a 0.5 McFarland turbidity, followed by 1:50 dilution in Mueller-Hinton broth (MHB) for inoculation to a final concentration of approximately 5×10^5 CFU/mL. […] MIC was recorded as wells with the lowest concentration of drugs with no bacterial growth. The fractional inhibitory concentration (FIC) for each antibiotic was calculated by dividing the MIC of the antibiotic in the presence of adjuvant by the MIC of the antibiotic alone. Similarly, the FIC of adjuvant was calculated by dividing the MIC of the adjuvant in the presence of antibiotic by the MIC of the adjuvant alone. FIC index is the sum of both FICs. FIC indices of ≤0.5 were deemed synergistic; >0.5-4, no interaction; and >4, antagonistic.

Procedure for porcine erythrocytes: Hemolytic Assay. The hemolytic activities of the newly synthesized compounds were determined and quantified as the amount of hemoglobin released by lysing porcine erythrocytes. […] The final cell concentration used was 3×10^8 cells/mL. Compounds were serially diluted with PBS and added to wells in a 96-well plate at twice the desired concentrations. […] Intact erythrocytes were subsequently pelleted by centrifuging at 1000 g at 4° C. for 10 mins, and the supernatants were transferred to a new 96-well plate. […] Blood cells in PBS (0% hemolysis) and 0.1% Triton X-100 (100% hemolysis) were used as negative and positive controls, respectively. Percent hemolysis was calculated as [% hemolysis=(X−0%)/(100%−0%)], where X is the optical density values of the compounds at different concentrations (49).

SMILES: NC[C@H]1O[C@H](O[C@H]2[C@H](OCCCCCCn3cc(CCCCO[C@@H]4[C@@H](O[C@H]5O[C@H](CO)[C@@H](O)[C@H](N)[C@H]5O)[C@H](N)C[C@H](N)[C@H]4O[C@H]4O[C@H](CN)[C@@H](O)C[C@H]4N)nn3)[C@@H](O[C@H]3O[C@H](CO)[C@@H](O)[C@H](N)[C@H]3O)[C@H](N)C[C@@H]2N)[C@H](N)C[C@@H]1O.O=C(O)C(F)(F)F.O=C(O)C(F)(F)F.O=C(O)C(F)(F)F.O=C(O)C(F)(F)F.O=C(O)C(F)(F)F.O=C(O)C(F)(F)F.O=C(O)C(F)(F)F.O=C(O)C(F)(F)F.O=C(O)C(F)(F)F.O=C(O)C(F)(F)F [Compound 2, Tobramycin Homodimer 2]
- hemolysis of porcine erythrocytes (porcine erythrocytes): non-hemolytic

SMILES: Cl.Cl.Cl.Cl.Cl.NC[C@H]1O[C@H](O[C@H]2[C@H](OCCCCCCCCCCCCN3CCN(c4cc5c(cc4F)c(=O)c(C(=O)O)cn5C4CC4)CC3)[C@@H](O)[C@H](N)C[C@@H]2N)[C@H](N)C[C@@H]1O [Compound 24]
- MIC ([1]; PA0750 (efflux-deficient)): 2 µg/mL
- MIC ([1]; PAO1 (wild-type)): 32 µg/mL
- MIC ([1]; PAO200 (first column so headed)): 4 µg/mL
- MIC ([1]; PAO200 (second column so headed)): 2 µg/mL
- intrinsic antimicrobial activity [2]: some modest residual activity
- MIC of Aztreonam + compound (P. aeruginosa; P. aeruginosa PAO1): 0.5 µg/mL
- MIC of Ceftazidime + compound (P. aeruginosa; P. aeruginosa PAO1): 0.25 µg/mL
- MIC of Imipenem + compound (P. aeruginosa; P. aeruginosa PAO1): 1 µg/mL
- MIC of Piperacillin + compound (P. aeruginosa; P. aeruginosa PAO1): 2 µg/mL
- MIC of ATM in the presence of compound (P. aeruginosa; PA 259-96918): 8 µg/mL
- MIC of CAZ in the presence of compound (P. aeruginosa; PA 259-96918): 128 µg/mL
- MIC of IPM in the presence of compound (P. aeruginosa; PA 259-96918): 16 µg/mL
- MIC of ATM in the presence of compound (P. aeruginosa; PA 260-97103): 0.25 µg/mL
- MIC of CAZ in the presence of compound (P. aeruginosa; PA 260-97103): 0.25 µg/mL
- MIC of IPM in the presence of compound (P. aeruginosa; PA 260-97103): 2 µg/mL
- MIC of ATM in the presence of compound (P. aeruginosa; PA 262-101856): 16 µg/mL
- MIC of CAZ in the presence of compound (P. aeruginosa; PA 262-101856): 4 µg/mL
- MIC of IPM in the presence of compound (P. aeruginosa; PA 262-101856): 8 µg/mL
- MIC of ATM in the presence of compound (P. aeruginosa; PA 264-104354): 16 µg/mL
- MIC of CAZ in the presence of compound (P. aeruginosa; PA 264-104354): 64 µg/mL
- MIC of IPM in the presence of compound (P. aeruginosa; PA 264-104354): 8 µg/mL
- MIC of ATM in the presence of compound (P. aeruginosa; PA 86052): 4 µg/mL
- MIC of CAZ in the presence of compound (P. aeruginosa; PA 86052): 4 µg/mL
- MIC of IPM in the presence of compound (P. aeruginosa; PA 86052): 4 µg/mL
- MIC of ATM in the presence of compound (P. aeruginosa; PA 88949): 8 µg/mL
- MIC of CAZ in the presence of compound (P. aeruginosa; PA 88949): 32 µg/mL
- MIC of IPM in the presence of compound (P. aeruginosa; PA 88949): 64 µg/mL
- MIC of ATM in the presence of compound (P. aeruginosa; PA 91433): 8 µg/mL
- MIC of CAZ in the presence of compound (P. aeruginosa; PA 91433): 0.5 µg/mL
- MIC of IPM in the presence of compound (P. aeruginosa; PA 91433): 8 µg/mL
- MIC of ATM in the presence of compound (P. aeruginosa; PA 100036): 8 µg/mL
- MIC of CAZ in the presence of compound (P. aeruginosa; PA 100036): 4 µg/mL
- MIC of IPM in the presence of compound (P. aeruginosa; PA 100036): 4 µg/mL
- MIC of ATM in the presence of compound (P. aeruginosa; PA 101243): 0.25 µg/mL
- MIC of CAZ in the presence of compound (P. aeruginosa; PA 101243): 4 µg/mL
- MIC of IPM in the presence of compound (P. aeruginosa; PA 101243): 4 µg/mL
- MIC of ATM in the presence of compound (P. aeruginosa; PA 101885): 4 µg/mL
- MIC of CAZ in the presence of compound (P. aeruginosa; PA 101885): 4 µg/mL
- MIC of IPM in the presence of compound (P. aeruginosa; PA 101885): 2 µg/mL
- MIC of ATM in the presence of compound (P. aeruginosa; PA 107092): 32 µg/mL
- MIC of CAZ in the presence of compound (P. aeruginosa; PA 107092): 64 µg/mL
- MIC of IPM in the presence of compound (P. aeruginosa; PA 107092): 16 µg/mL
- MIC of ATM in the presence of compound (P. aeruginosa; PA 108590): 0.13 µg/mL
- MIC of CAZ in the presence of compound (P. aeruginosa; PA 108590): 1 µg/mL
- MIC of IPM in the presence of compound (P. aeruginosa; PA 108590): 0.5 µg/mL
- MIC of ATM in the presence of compound (P. aeruginosa; PA 109084): 32 µg/mL
- MIC of CAZ in the presence of compound (P. aeruginosa; PA 109084): 32 µg/mL
- MIC of IPM in the presence of compound (P. aeruginosa; PA 109084): 8 µg/mL
- MIC of ATM in the presence of compound (P. aeruginosa; PA 114228): 8 µg/mL
- MIC of CAZ in the presence of compound (P. aeruginosa; PA 114228): 4 µg/mL
- MIC of IPM in the presence of compound (P. aeruginosa; PA 114228): 1 µg/mL
- MIC of ATM in the presence of compound (P. aeruginosa; PA O200 (efflux-deficient)): 0.03 µg/mL
- MIC of CAZ in the presence of compound (P. aeruginosa; PA O200 (efflux-deficient)): 0.13 µg/mL
- MIC of IPM in the presence of compound (P. aeruginosa; PA O200 (efflux-deficient)): 1 µg/mL
- MIC of ATM in the presence of compound (P. aeruginosa; PA O750 (efflux-deficient)): 0.13 µg/mL
- MIC of CAZ in the presence of compound (P. aeruginosa; PA O750 (efflux-deficient)): 0.01 µg/mL
- MIC of IPM in the presence of compound (P. aeruginosa; PA O750 (efflux-deficient)): 2 µg/mL
- MIC of ATM in the presence of compound (P. aeruginosa; PAO1): 0.5 µg/mL
- MIC of CAZ in the presence of compound (P. aeruginosa; PAO1): 0.25 µg/mL
- MIC of IPM in the presence of compound (P. aeruginosa; PAO1): 1 µg/mL
